According to US20240279281A1, “Peptide Inhibitors of Interleukin-23 Receptor” (Janssen Pharmaceutica NV, priority 2023, published 2024):
Read-outs that look alike come from different tables or passages of the source. Starred links: 1 amine or outer side, 2 acyl side, 3 side chain; linkers in the order of their positions; H or OH if unused. Positions of bridges follow the written chain, without caps; N, C: chain ends. Non-standard residues stand in square brackets, D forms with d. Residues, ends and D or L forms follow the SMILES beside them. *: point of attachment. X22 = CN(CCOCCOCC(=O)N(C)CCOCCOCC(=O)*)C(=O)CC[C@@H](C(=O)O)N(C)C(=O)CCCCCCCCCCCCCCCCCc1nnn[nH]1; Trp(7-(3-AcNH-Ph)) = CC(=O)Nc1cccc(-c2cccc3c(C[C@H](N)C(=O)O)c[nH]c23)c1; X12 = O=C([C@H](Cc1ccc2cc(F)ccc2c1)N[*:1])[*:2]; 2Nal(6-OH) = N[C@@H](Cc1ccc2cc(O)ccc2c1)C(=O)O; Trp(7-Me) = Cc1cccc2c(C[C@H](N)C(=O)O)c[nH]c12; d(hLys(Me3)) = C[N+](C)(C)CCCCC[C@@H](N)C(=O)O; AEF = NCCOc1ccc(C[C@H](N)C(=O)O)cc1; 3Pal = N[C@@H](Cc1cccnc1)C(=O)O; Lys(Me) = CNCCCC[C@H](N)C(=O)O; Pen = CC(C)(S)[C@H](N)C(=O)O; Thp = NC1(C(=O)O)CCOCC1; Sar = CNCC(=O)O

What was measured:
[1] = disulfide bond, 20-membered ring
[2] = biological target: T1, IL-23-stimulated phosphorylated STAT3 in peripheral blood mononuclear cells (PBMCs) (Homo sapiens, UniProt Q5VWK5); experiment: PBMC pSTAT3 Assay; format: cell-based
T1 sequence (Q5VWK5 24-629): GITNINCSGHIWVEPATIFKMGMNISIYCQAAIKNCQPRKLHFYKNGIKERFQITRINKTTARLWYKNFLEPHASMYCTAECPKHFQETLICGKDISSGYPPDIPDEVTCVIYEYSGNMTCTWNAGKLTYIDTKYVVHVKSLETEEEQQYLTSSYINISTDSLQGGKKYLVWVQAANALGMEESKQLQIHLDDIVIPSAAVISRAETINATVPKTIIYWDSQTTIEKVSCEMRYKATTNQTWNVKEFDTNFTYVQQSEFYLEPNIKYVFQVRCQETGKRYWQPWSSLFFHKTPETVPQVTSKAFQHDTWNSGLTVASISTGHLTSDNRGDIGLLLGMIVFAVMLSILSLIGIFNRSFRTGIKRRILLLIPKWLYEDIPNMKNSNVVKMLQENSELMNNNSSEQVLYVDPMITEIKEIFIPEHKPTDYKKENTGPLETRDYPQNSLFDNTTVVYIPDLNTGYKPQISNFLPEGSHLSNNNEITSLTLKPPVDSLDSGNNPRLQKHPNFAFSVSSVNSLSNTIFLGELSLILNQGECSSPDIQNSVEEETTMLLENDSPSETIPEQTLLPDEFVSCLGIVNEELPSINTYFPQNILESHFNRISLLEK
Outline: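 Anti-CD3/IL-1β-expanded donor PBMCs (day 4) starved ~4 h in RPMI-0.1% BSA, preincubated 30 min with peptide, then stimulated 30 min at 37° C with 5 ng/mL IL-23 (final). Lysates read for phospho-STAT3 by Meso Scale phospho-STAT panel immunoassay.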

IL-23R = biological target: T2, IL-23R (Homo sapiens, UniProt Q5VWK5); experiment: IL23R Reporter Assay; format: cell-based
T2 construct: host or cells: HEK293
T2 sequence (Q5VWK5 24-629): T1 sequence (Q5VWK5 24-629)
Procedure: Compounds were serially diluted in 100% (v/v) DMSO) and plated using an Echo acoustic dispenser (Labcyte) into 1536-well non-treated black assay plates (Corning #9146). […] After 5 h at 37° C., 5% CO2, 95% relative humidity, cells were placed at 20° C. and treated with BioGlo reagent (Promega) according to the Manufacturer's instructions. Luminescence was measured on a Pherastar FSX (BMG LabTech).

[3] = PBMCs from healthy donors, IL-23 5 ng/mL, 30 minutes, read-out: PBMC pSTAT3 IC50
[4] = HEK293 cells containing IL-23R, IL-12Rβ1 and STAT-inducible luciferase reporter, 10 ng/mL IL-23, 5 h, read-out: IC50

## CC(=O)NCCCC[C@@H]1NC(=O)[C@H](Cc2c[nH]c3c(C)cccc23)NC(=O)[C@H]([C@@H](C)O)NC(=O)[C@H](CC(N)=O)NC(=O)[C@@H](NC(=O)[C@@H](CCCNC(=N)N)NC(C)=O)C(C)(C)SSC(C)(C)[C@@H](C(=O)N[C@@H](Cc2ccc(OCCN)cc2)C(=O)N[C@@H](Cc2ccc3cc(F)ccc3c2)C(=O)NC2(C(=O)N[C@@H](CCC(=O)O)C(=O)N[C@@H](CC(N)=O)C(=O)N[C@@H](Cc3cccnc3)C(=O)N(C)CC(N)=O)CCOCC2)NC1=O [SEQ ID NO: 407, MeCO-r-Pen(3)-N-T-7MeW-K(Ac)-Pen(3)-AEF-6F2Nal-THP-E-N-3Pya-Sar-CONH2] (Ac-[dR][Pen]NT[Trp(7-Me)]K(Ac)[Pen][AEF][X12][Thp]EN[3Pal][Sar]-NH2; disulfide 2-7)
[1]; from Ac-dArg-Pen-Asn-Thr-7MeTrp-Lys(Ac)-Pen-AEF-6F2Nal-THP-Glu-Asn-3Pya-Sar-NH2, I2/MeOH, 20% MeCN/H2O, 0.85 mM
  ring closure, yield after HPLC: 22.1%
[2]; [3]
  IC50: 10 to 100 pM
IL-23R; [4]
  IC50: < 10000 pM

## CC(=O)NCCCC[C@@H]1NC(=O)[C@H](Cc2c[nH]c3c(C)cccc23)NC(=O)[C@H]([C@@H](C)O)NC(=O)[C@H](CC(N)=O)NC(=O)[C@@H](NC(=O)[C@@H](CCCNC(=N)N)NC(C)=O)C(C)(C)SSC(C)(C)[C@@H](C(=O)N[C@@H](Cc2ccc(OCCN)cc2)C(=O)N[C@@H](Cc2ccc3cc(O)ccc3c2)C(=O)NC2(C(=O)N[C@@H](CCC(=O)O)C(=O)N[C@@H](CC(N)=O)C(=O)N[C@@H](Cc3cccnc3)C(=O)N(C)CC(=O)N[C@@H](CCCCNC(=O)COCCOCCN(C)C(=O)COCCOCCN(C)C(=O)CC[C@@H](C(=O)O)N(C)C(=O)CCCCCCCCCCCCCCCCCc3nnn[nH]3)C(N)=O)CCOCC2)NC1=O [SEQ ID NO: 115, MeCO-r-Pen(3)-N-T-7MeW-K(Ac)-Pen(3)-AEF-6OH2Nal-THP-E-N-3Pya-Sar-K(PEG2NMePEG2NMegENMeCl8Tetrazole)-CONH2] (Ac-[dR][Pen]NT[Trp(7-Me)]K(Ac)[Pen][AEF][2Nal(6-OH)][Thp]EN[3Pal][Sar]K(X22)-NH2; disulfide 2-7)
[1]; from Ac-dArg-Pen-Asn-Thr-7MeTrp-Lys(Ac)-Pen-AEF-6OH2Nal-THP-Glu-Asn-3Pya-Sar-Lys(PEG2NMePEG2NMegENMeCl8Tetrazole)-NH2, I2/MeOH, 20% MeCN/H2O, 0.503 mM
  ring closure, yield after HPLC: 8.08%
[2]; read-out: PBMC pSTAT3 IC50, PBMCs from healthy donors, IL-23 5 ng/mL, 30 minutes
  IC50: 100 to 1000 pM
IL-23R
  IC50: 10000 to 100000 pM

## CC(=O)NCCCC[C@@H]1NC(=O)[C@H](Cc2c[nH]c3c(C)cccc23)NC(=O)[C@H]([C@@H](C)O)NC(=O)[C@H](CC(N)=O)NC(=O)[C@@H](NC(C)=O)C(C)(C)SSC(C)(C)[C@@H](C(=O)N[C@@H](Cc2ccc(OCCN)cc2)C(=O)N[C@@H](Cc2ccc3cc(O)ccc3c2)C(=O)NC2(C(=O)N[C@@H](CCC(=O)O)C(=O)N[C@@H](CC(N)=O)C(=O)N[C@@H](Cc3cccnc3)C(=O)N(C)CC(N)=O)CCOCC2)NC1=O [SEQ ID NO: 428, MeCO-Pen(3)-N-T-7MeW-K(Ac)-Pen(3)-AEF-6OH2Nal-THP-E-N-3Pya-Sar-CONH2] (Ac-[Pen]NT[Trp(7-Me)]K(Ac)[Pen][AEF][2Nal(6-OH)][Thp]EN[3Pal][Sar]-NH2; disulfide 1-6)
[1]; from Ac-Pen-Asn-Thr-7MeTrp-Lys(Ac)-Pen-AEF-6OH2Nal-THP-Glu-Asn-3Pya-Sar-NH2, I2/MeOH, 20% MeCN/H2O, 1.0 mM
  ring closure, yield after HPLC: 8.61%
[2]; [3]
  IC50: < 10 pM
IL-23R; [4]
  IC50: < 10000 pM

## CC(=O)NCCCC[C@@H]1NC(=O)[C@H](Cc2c[nH]c3c(-c4cccc(NC(C)=O)c4)cccc23)NC(=O)[C@H]([C@@H](C)O)NC(=O)[C@H](CC(N)=O)NC(=O)[C@@H](NC(=O)[C@@H](CCCNC(=N)N)NC(C)=O)C(C)(C)SSC(C)(C)[C@@H](C(=O)N[C@@H](Cc2ccc(OCCN)cc2)C(=O)N[C@@H](Cc2ccc3cc(O)ccc3c2)C(=O)NC2(C(=O)N[C@@H](CCC(=O)O)C(=O)N[C@@H](CC(N)=O)C(=O)N[C@@H](Cc3cccnc3)C(=O)N(C)CC(N)=O)CCOCC2)NC1=O [compound 287, MeCO-r-Pen(3)-N-T-7(3NAcPh)W-K(Ac)-Pen(3)-AEF-6OH2Nal-THP-E-N-3Pya-Sar-CONH2] (Ac-[dR][Pen]NT[Trp(7-(3-AcNH-Ph))]K(Ac)[Pen][AEF][2Nal(6-OH)][Thp]EN[3Pal][Sar]-NH2; disulfide 2-7)
[1]; from Ac-dArg-Pen-Asn-Thr-7(3NAcPh)Trp-Lys(Ac)-Pen-AEF-6OH2Nal-THP-Glu-Asn-3Pya-Sar-NH2, I2/MeOH, 20% MeCN/H2O, 0.8 mM
  ring closure, yield after HPLC: 26%
[2]; [3]
  IC50: 10 to 100 pM
IL-23R; [4]
  IC50: < 10000 pM

## CC(=O)N[C@H](CCCCC[N+](C)(C)C)C(=O)N[C@@H]1C(=O)N[C@@H](CC(=O)N(C)C)C(=O)N[C@@H]([C@@H](C)O)C(=O)N[C@@H](Cc2c[nH]c3c(C)cccc23)C(=O)N[C@@H](CCCCN(C)C(C)=O)C(=O)N[C@H](C(=O)N[C@@H](Cc2ccc(OCCN)cc2)C(=O)N[C@@H](Cc2ccc3cc(O)ccc3c2)C(=O)NC2(C(=O)N[C@@H](CCC(=O)O)C(=O)N[C@@H](CC(N)=O)C(=O)N[C@@H](Cc3cccnc3)C(=O)N(C)CC(=O)N(C)C)CCOCC2)C(C)(C)SSC1(C)C [SEQ ID NO: 389, MeCO-hk(Me)3-Pen(3)-N(N(Me)2)-T-7MeW-K(NMeAc)-Pen(3)-AEF-6OH2Nal-THP-E-N-3Pya-Sar-CON(Me)2] (Ac-[d(hLys(Me3))][Pen]D(NMe2)T[Trp(7-Me)][Lys(Me)](Ac)[Pen][AEF][2Nal(6-OH)][Thp]EN[3Pal][Sar]-NMe2; disulfide 2-7)
[1]; from Ac-dhLys(Me3)-Pen-Asn(NMe2)-Thr-7MeTrp-Lys(NMeAc)-Pen-AEF-6OH2Nal-THP-Glu-Asn-3Pya-Sar-NMe2?, I2/MeOH, 20% MeCN/H2O, 0.92 mM
  ring closure, yield after HPLC: 11%
[2]; [3]
  IC50: < 10 pM
IL-23R; [4]
  IC50: < 10000 pM

## MeCO-Pen(3)-E(2)-T-7MeW-K(Ac)-Pen(3)-AEF(2)-6OH2Nal-THP-K(Ac)-N-3Pya-Sar-CONH2
[1]; I2/MeOH, 20% MeCN/H2O, 0.85 mM
  ring closure, yield after HPLC: 8.28%

## Cc1cccc2c(C[C@@H]3NC(=O)[C@H]([C@@H](C)O)NC(=O)[C@H](CC(N)=O)NC(=O)[C@@H](NC(=O)CCOCCOCC[N+](C)(C)C)C(C)(C)SSC(C)(C)[C@@H](C(=O)N[C@@H](Cc4ccc(OCCN)cc4)C(=O)N[C@@H](Cc4ccc5cc(O)ccc5c4)C(=O)NC4(C(=O)N[C@@H](CCCCN(C)C(=O)CCOCCOCC[N+](C)(C)C)C(=O)N[C@@H](CC(N)=O)C(=O)N[C@@H](Cc5cccnc5)C(=O)N(C)CC(N)=O)CCOCC4)NC(=O)[C@H](CCCCN(C)C(=O)CCOCCOCC[N+](C)(C)C)NC3=O)c[nH]c12
[1]; from cPEG3aCO-Pen-Asn-Thr-7MeTrp-Lys(NMecPEG3a)-Pen-AEF-6OH2Nal-THP-Lys(NMecPEG3a)-Asn-3Pya-Sar-NH2, I2/MeOH, 20% MeCN/H2O, 0.6 mM
  ring closure, yield after HPLC: 11.7%

## CC(=O)NCCCC[C@@H]1NC(=O)[C@H](Cc2c[nH]c3c(C)cccc23)NC(=O)[C@H]([C@@H](C)O)NC(=O)[C@H](CC(N)=O)NC(=O)[C@@H](NC(=O)[C@@H](CCCNC(=N)N)NC(C)=O)C(C)(C)SSC(C)(C)[C@@H](C(=O)N[C@@H](Cc2ccc(OCCN)cc2)C(=O)N[C@@H](Cc2ccc3cc(O)ccc3c2)C(=O)NC2(C(=O)N[C@@H](CCC(=O)O)C(=O)N[C@@H](CC(N)=O)C(=O)N[C@@H](Cc3cccnc3)C(=O)N(C)CC(N)=O)CCOCC2)NC1=O
[1]; from Ac-dArg-Pen-Asn-Thr-7MeTrp-Lys(Ac)-Pen-AEF-6OH2Nal-THP-Glu-Asn-3Pya-Sar-NH2
  ring closure, yield after HPLC: 10.3%
